According to publication PMC8606745 (Frontiers in Microbiology, 2021):
Like-named read-outs stand apart in the source and are kept apart here. Square brackets hold non-standard residues; d marks the D form. Peptide text beside a SMILES is read from it.

Experiments:
[1] = tested on: X. fastidiosa subsp. fastidiosa IVIA 5387.2; assay type: cell-based, Xylella fastidiosa
[2] = tested on: X. fastidiosa subsp. fastidiosa IVIA 5387.2; settings: for log reduction of cell viability: 3 h, 50 μM

Molecule | Biofilm formation Level (antibiofilm activity) [1] | Biofilm formation Ratio (treatment/NTC) [1] | Planktonic cells Ratio (treatment/NTC) [1] | Bactericidal activity: Reduction in viability (Log N0/N) [2] [Log N0/N] | other results
CC[C@H](C)[C@H](NC(=O)[C@H](Cc1c[nH]c2ccccc12)NC(=O)[C@H](CCCCN)NC(=O)[C@H](CCCCN)NC(=O)[C@@H](NC(=O)[C@H](CCCNC(=N)N)NC(=O)[C@H](CCCNC(=N)N)NC(=O)[C@@H](NC(=O)[C@@H](N)Cc1c[nH]c2ccccc12)[C@@H](C)CC)[C@@H](C)CC)C(=O)N[C@@H](CCCNC(=N)N)C(=O)N[C@@H](CCCNC(=N)N)C(=O)N[C@H](C(=O)N[C@@H](Cc1c[nH]cn1)C(=O)N[C@@H](CCCCN)C(N)=O)C(C)C [RR2-NH2] (H-WIRRIKKWIRRVHK-NH2) | High (key: High: high antibiofilm activity (ratio of biofilm formation from 0.01 to 0.2); Moderate: moderate activity (ratio from 0.29 to 0.47); Low: low activity (ratio from 0.72 to 0.77)) | 0.13 ± 0.01 | 2.13 ± 0.07 | 1.43 ± 0.12 | –
CC[C@H](C)[C@H](NC(=O)[C@H](C)NC(=O)[C@H](Cc1c[nH]cn1)NC(=O)[C@@H]1CCCN1C(=O)[C@@H](NC(=O)[C@H](CC(C)C)NC(=O)[C@H](CO)NC(=O)[C@H](Cc1ccccc1)NC(=O)[C@H](CC(C)C)NC(=O)[C@@H](N)Cc1ccccc1)[C@@H](C)CC)C(=O)NCC(=O)NCC(=O)N[C@@H](CC(C)C)C(=O)N[C@H](C(=O)N[C@@H](CO)C(=O)N[C@@H](C)C(=O)N[C@@H](Cc1ccccc1)C(=O)N[C@@H](CCCCN)C(N)=O)[C@@H](C)CC [AamAP1] | – | – | – | 1.38 ± 0.12 | Effect on X. fastidiosa growth in the antibiofilm test [1]: affected X. fastidiosa’s growth; Hemolysis (horse erythrocytes; 150 µM): 100.00 ± 1.3%; Hemolysis (horse erythrocytes; 250 µM): 100.0 ± 4.1%; Hemolysis (horse erythrocytes; 375 µM): 100.0 ± 4.4%
CC[C@H](C)[C@H](NC(=O)[C@H](CCCNC(=N)N)NC(=O)[C@H](CCCNC(=N)N)NC(=O)[C@H](CC(C)C)NC(=O)[C@@H](N)Cc1c[nH]c2ccccc12)C(=O)N[C@@H](CCCCN)C(=O)N[C@@H](C)C(=O)N[C@@H](Cc1c[nH]c2ccccc12)C(=O)N[C@@H](CC(C)C)C(=O)N[C@@H](CCCNC(=N)N)C(=O)N[C@@H](CCCNC(=N)N)C(=O)N[C@@H](CCCCN)C(=O)N[C@@H](CCCNC(=N)N)C(=O)N[C@@H](CCCCN)C(N)=O [RR3-NH2] (H-WLRRIKAWLRRKRK-NH2) | Moderate (key: High: high antibiofilm activity (ratio of biofilm formation from 0.01 to 0.2); Moderate: moderate activity (ratio from 0.29 to 0.47); Low: low activity (ratio from 0.72 to 0.77)) | 0.29 ± 0.01 | 1.66 ± 0.09 | 0.89 ± 0.09 | –
CC[C@H](C)[C@H](NC(=O)CN)C(=O)NCC(=O)N[C@@H](CCCCN)C(=O)N[C@@H](Cc1ccccc1)C(=O)N[C@@H](CC(C)C)C(=O)N[C@@H](Cc1c[nH]cn1)C(=O)N[C@@H](CO)C(=O)N[C@@H](C)C(=O)N[C@@H](CCCCN)C(N)=O [Magainin 2(1-10)] (H-GIGKFLHSAK-NH2) | Low (key: High: high antibiofilm activity (ratio of biofilm formation from 0.01 to 0.2); Moderate: moderate activity (ratio from 0.29 to 0.47); Low: low activity (ratio from 0.72 to 0.77)) | 0.77 ± 0.02 | 1.67 ± 0.07 | 0.00 ± 0.06 | –
CC[C@@H](C)[C@@H](NC(=O)[C@H](N)CCCNC(=N)N)C(=O)N[C@@H](C(=O)N[C@H](Cc1c[nH]c2ccccc12)C(=O)N[C@@H](C(=O)N[C@H](CCCNC(=N)N)C(=O)N[C@@H](C(=O)N[C@H](CCCNC(=N)N)C(=O)N[C@H](CCCNC(=N)N)C(=O)N[C@H](Cc1c[nH]c2ccccc12)C(=O)N[C@H](Cc1ccccc1)C(=O)N[C@@H](C(N)=O)C(C)C)[C@H](C)CC)C(C)C)C(C)C [RIJK2] (H-[dR][dI][dV][dW][dV][dR][dI][dR][dR][dW][dF][dV]-NH2) | High (key: High: high antibiofilm activity (ratio of biofilm formation from 0.01 to 0.2); Moderate: moderate activity (ratio from 0.29 to 0.47); Low: low activity (ratio from 0.72 to 0.77)) | – | 1.43 ± 0.09 | – | –
HOC11H22CO-ILPFKFPFFPFRR-NH2 [BP529] | – | – | – | – | Biofilm formation Level (antibiofilm activity) ([1]; 50 µM): High (key: High: high antibiofilm activity (ratio of biofilm formation from 0.01 to 0.2); Moderate: moderate activity (ratio from 0.29 to 0.47); Low: low activity (ratio from 0.72 to 0.77)); Biofilm formation Ratio (treatment/NTC) ([1]; 50 µM): 0.12 ± 0.03; Planktonic cells Ratio (treatment/NTC) ([1]; 50 µM): 2.29 ± 0.03; Bactericidal activity: Reduction in viability (Log N0/N) ([2]; 50 µM): 0.62 ± 0.09 Log N0/N; Hemolysis (horse erythrocytes; 150 µM): 7.2 ± 0.3%; Hemolysis (horse erythrocytes; 250 µM): 12.5 ± 0.6%; Hemolysis (horse erythrocytes; 375 µM): 39.0 ± 1.1%
CC[C@H](C)[C@H](NC(=O)[C@H](C)NC(=O)[C@H](CCCCN)NC(=O)[C@@H]1CCCN1C(=O)[C@@H](NC(=O)[C@H](CC(C)C)NC(=O)[C@H](CO)NC(=O)[C@H](Cc1ccccc1)NC(=O)[C@H](CC(C)C)NC(=O)[C@@H](N)Cc1ccccc1)[C@@H](C)CC)C(=O)NCC(=O)NCC(=O)N[C@@H](CC(C)C)C(=O)N[C@H](C(=O)N[C@@H](CO)C(=O)N[C@@H](C)C(=O)N[C@@H](Cc1ccccc1)C(=O)N[C@@H](CCCCN)C(N)=O)[C@@H](C)CC [AamAP-S1] | – | – | – | 2.45 ± 0.09 | Effect on X. fastidiosa growth in the antibiofilm test [1]: affected X. fastidiosa’s growth; log reduction of cell viability [2]: 2-3 log
CC[C@H](C)[C@H](NC(=O)[C@H](CCCNC(=N)N)NC(=O)[C@@H](NC(=O)[C@H](Cc1c[nH]c2ccccc12)NC(=O)[C@@H](NC(=O)[C@@H](NC(=O)[C@@H](N)CCCNC(=N)N)[C@@H](C)CC)C(C)C)C(C)C)C(=O)N[C@@H](CCCNC(=N)N)C(=O)N[C@@H](CCCNC(=N)N)C(=O)N[C@@H](Cc1c[nH]c2ccccc12)C(=O)N[C@@H](Cc1ccccc1)C(=O)N[C@H](C(N)=O)C(C)C [RJK2] (H-RIVWVRIRRWFV-NH2) | – | – | – | – | Biofilm formation Level (antibiofilm activity) ([1]; 50 µM): High (key: High: high antibiofilm activity (ratio of biofilm formation from 0.01 to 0.2); Moderate: moderate activity (ratio from 0.29 to 0.47); Low: low activity (ratio from 0.72 to 0.77)); Biofilm formation Ratio (treatment/NTC) ([1]; 50 µM): 0.02 ± 0.00; Planktonic cells Ratio (treatment/NTC) ([1]; 50 µM): 1.54 ± 0.07; Bactericidal activity: Reduction in viability (Log N0/N) ([2]; 50 µM): 0.70 ± 0.08 Log N0/N; Hemolysis (horse erythrocytes; 150 µM): 19.2 ± 3.1%; Hemolysis (horse erythrocytes; 250 µM): 29.6 ± 2.2%; Hemolysis (horse erythrocytes; 375 µM): 50.2 ± 5.4%
Cecropin B | – | – | – | – | Bactericidal activity: Reduction in viability (Log N0/N) ([2]; 3.1 µM): 2.13 ± 0.10 Log N0/N; Bactericidal activity: Reduction in viability (Log N0/N) ([2]; 12.5 μM): 3.19 ± 0.06 Log N0/N; log reduction ([2]; 12.5 μM): 3.19 log; Bactericidal activity: Reduction in viability (Log N0/N) ([2]; 50 µM): 4.00 ± 0.10 Log N0/N
CC[C@H](C)[C@H](NC(=O)[C@H](C)NC(=O)[C@H](CCCNC(=N)N)NC(=O)[C@@H]1CCCN1C(=O)[C@@H](NC(=O)[C@H](CC(C)C)NC(=O)[C@H](CO)NC(=O)[C@H](Cc1ccccc1)NC(=O)[C@H](CC(C)C)NC(=O)[C@@H](N)Cc1ccccc1)[C@@H](C)CC)C(=O)NCC(=O)NCC(=O)N[C@@H](CC(C)C)C(=O)N[C@H](C(=O)N[C@@H](CO)C(=O)N[C@@H](C)C(=O)N[C@@H](Cc1ccccc1)C(=O)N[C@@H](CCCCN)C(N)=O)[C@@H](C)CC [AamAP-R] | – | – | – | 0.78 ± 0.01 | Effect on X. fastidiosa growth in the antibiofilm test [1]: affected X. fastidiosa’s growth
CC[C@H](C)[C@H](NC(=O)[C@H](CCCNC(=N)N)NC(=O)[C@H](Cc1ccccc1)NC(=O)[C@H](CCC(N)=O)NC(=O)[C@@H](N)C(C)C)C(=O)N[C@@H](CCCNC(=N)N)C(=O)N[C@H](C(=O)N[C@@H](CCCNC(=N)N)C(=O)N[C@H](C(=O)N[C@H](C(=O)N[C@H](C(=O)N[C@@H](CCCNC(=N)N)C(=O)N[C@@H](CCCCN)C(N)=O)[C@@H](C)CC)C(C)C)[C@@H](C)CC)C(C)C [Peptide 1036] (H-VQFRIRVRIVIRK-NH2) | High (key: High: high antibiofilm activity (ratio of biofilm formation from 0.01 to 0.2); Moderate: moderate activity (ratio from 0.29 to 0.47); Low: low activity (ratio from 0.72 to 0.77)) | – | 2.16 ± 0.06 | – | log reduction [2]: 3.48 log
CC[C@H](C)[C@H](NC(=O)[C@H](CCCNC(=N)N)NC(=O)[C@H](Cc1ccccc1)NC(=O)[C@H](CCC(N)=O)NC(=O)[C@@H](N)CCCCN)C(=O)N[C@@H](CCCNC(=N)N)C(=O)N[C@H](C(=O)N[C@@H](CCCNC(=N)N)C(=O)N[C@H](C(N)=O)C(C)C)C(C)C [Peptide 1029] (H-KQFRIRVRV-NH2) | High (key: High: high antibiofilm activity (ratio of biofilm formation from 0.01 to 0.2); Moderate: moderate activity (ratio from 0.29 to 0.47); Low: low activity (ratio from 0.72 to 0.77)) | 0.20 ± 0.01 | 1.71 ± 0.04 | 1.18 ± 0.08 | –
CC[C@H](C)[C@H](NC(=O)[C@H](CCCNC(=N)N)NC(=O)[C@H](CCCNC(=N)N)NC(=O)[C@H](CC(C)C)NC(=O)[C@H](Cc1c[nH]c2ccccc12)NC(=O)[C@H](C)NC(=O)[C@H](CCCCN)NC(=O)[C@@H](NC(=O)[C@H](CCCNC(=N)N)NC(=O)[C@H](CCCNC(=N)N)NC(=O)[C@H](CC(C)C)NC(=O)[C@@H](N)Cc1c[nH]c2ccccc12)[C@@H](C)CC)C(=O)N[C@@H](CCCCN)C(=O)N[C@@H](C)C(N)=O [RR4-NH2] | High (key: High: high antibiofilm activity (ratio of biofilm formation from 0.01 to 0.2); Moderate: moderate activity (ratio from 0.29 to 0.47); Low: low activity (ratio from 0.72 to 0.77)) | 0.20 ± 0.01 | 1.84 ± 0.05 | 2.08 ± 0.09 | log reduction of cell viability [2]: 2-3 log
